Patent publication US20150230474A1, “Use of Glyphosate to Control Clubroot Disease” (priority 2014, published 2015)
Entries after “also recorded” stand apart in the source; their conditions may differ.

Assays:
Plasmodiophora brassicae [1] = test: Pre-seeding treatment of P. brassicae infested potting mix, VT500G canola then sown; type: in vivo; conditions: for plant growth / foliar symptoms of clubroot disease: 35 days post seeding; for early senescence: 60 days post seeding
Protocol: (§1) An isolate of clubroot pathogen Plasmodiophora brassicae was obtained from infested canola fields in central Alberta. The pathogen population from this collection may represent a mixture of pathotypes, but pathotype 3 is expected to be predominant (Peng et al., 2011). The inoculum was propagated using a susceptible canola cv. Westar grown in the infested soil with spores. Fresh clubroot galls were harvested, air dried, and stored at 4° C., and were further used for fresh inoculum preparation. To extract spores, 2-5 g of air-dried galls were soaked in distilled water for a few hours to soften the tissues and then ground in a mortar with pestle. The resulting slurry was filtered through three layers of cheesecloth and the spore concentration was estimated under a microscope. Inoculum concentration of 1.0·10^7 resting spores/ml was used for inoculation.
(§2) Canola plants, cultivar Westar and the Roundup®-resistant transgenic line VT500G of Brassica napus, were used. Plants were grown in a phytotron at 22° C. with a light/dark photoperiod of 16 h/8 h (light intensity 120 μmol m^−2 s^−1).
(§3) Potting mix consisting of fine peat moss, vermiculite, gypsum, dolomitic limestone and starter nutrient (Sunshine Mix #3; pH 5.8-6.2; Sun Gro Horticulture Canada Ltd., Canada) in 13 cm diameter plastic pots was inoculated with P. brassicae spores. The P. brassicae infested potting soil was then irrigated with 350 ml of water or glyphosate (Roundup®, Monsanto Canada Inc.) solution to provide an application rate of 0 mg, 143, 286, or 572 mg of glyphosate per 13 cm pot containing 750 cm3 of potting mix. VT500G canola seeds were subsequently sown on the treated potting mix and allowed to grow at 22° C. with a light/dark photoperiod of 16 h/8 h for 65 days. Plant growth and clubroot symptom development were monitored over the incubation time course.

VT500G canola plants = test: Growth impediment of canola seedlings after pre-seeding glyphosate treatment of potting mix; type: in vivo, Brassica napus
Protocol: as §2, §3

Plasmodiophora brassicae [2] = test: Treatment of canola seedlings: potting mix irrigated with glyphosate solution, then inoculated with P. brassicae spores; type: in vivo; conditions: 572 mg/pot glyphosate, 15 days post-inoculation, VT500G canola
Protocol: as §1
Canola plants, cultivar Westar and the glyphosate-resistant transgenic line VT500G of Brassica napus, were used. Plants were grown in a phytotron at 22° C. with a light/dark photoperiod of 16 h/8 h (light intensity 120 μmol m^−2 s^−1). […]

O=C(O)CNCP(=O)(O)O [glyphosate, N-(phosphonomethyl)glycine]
plant growth / foliar symptoms of clubroot disease (Plasmodiophora brassicae [1]; 143 mg/pot): normal growth
early senescence (Plasmodiophora brassicae [1]; 143 mg/pot): appeared less affected, albeit with some signs of early senescence; also recorded: showed an early senescence
silique/seed production (Plasmodiophora brassicae [1]; 143 mg/pot, 65 days post seeding): Abortions of silique development were frequently observed
plant growth / foliar symptoms of clubroot disease (Plasmodiophora brassicae [1]; 286 mg/pot): normal growth
early senescence (Plasmodiophora brassicae [1]; 286 mg/pot): did not display early senescence
silique/seed production (Plasmodiophora brassicae [1]; 286 mg/pot, 65 days post seeding): normal silique/seed production
plant growth / foliar symptoms of clubroot disease (Plasmodiophora brassicae [1]; 572 mg/pot): normal growth
early senescence (Plasmodiophora brassicae [1]; 572 mg/pot): did not display early senescence
silique/seed production (Plasmodiophora brassicae [1]; 572 mg/pot, 65 days post seeding): normal silique/seed production
plant survival (Plasmodiophora brassicae [1]; all glyphosate treatments (143, 286, 572 mg/pot), 65 days post seeding): all glyphosate treated plants had survived
incidence of clubroot disease (Plasmodiophora brassicae [1]; drench application of glyphosate pesticide solution to inoculated potting mix, glyphosate-resistant canola): reduced the incidence of clubroot disease
chlorosis of leaves (VT500G canola plants; 572 mg/pot, 12 days post seeding): light chlorosis on true leaves
growth retardation (VT500G canola plants; 572 mg/pot, 22 days post seeding): slightly retarded growth
growth impediment of seedlings (VT500G canola plants; glyphosate-treated seedlings, early stages): Some growth retardation; also recorded: some growth impediment
clubroot development in the root system (Plasmodiophora brassicae [2]): prevented visible clubroot development
